How the values were obtained:
[1] = test system: CV-1P (African monkey green kidney fibroblasts cells); assay: In vitro transfection of plasmid DNA, β-galactosidase activity per well; type: cell-based; settings: CVI-P; for transfection, result in words: entry spans the charge ratios 8-0.5
Method in brief: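 CV-1P cells (20 000/well) given compound/DNA complexes at various charge ratios, prepared in 50 mM MES–50 mM HEPES–75 mM NaCl pH 7.2, 0.6 μg DNA/well, for 5 h at 37 °C, then 45 h in growth medium. Lysates assayed for β-galactosidase via oNPG hydrolysis at 405 nm against an E. coli enzyme standard; efficiency expressed as percent of Lipofectin.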

[2] = test system: D407 (human retinal pigment epithelial) cells; assay: as above; type: cell-based; settings: D 407
D 407 cells = assay: Cytotoxicity of amphiphile/DNA complexes, percentage of survived cells; type: cell-based, human; set-up: concentration or dose not given beside the values
plasmid DNA = assay: DNA condensation/complexation, EtBr displacement assay; type: binding
Method in brief: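 Plasmid DNA (0.6 μg/well) was mixed with 0.002% EtBr in 20 mM HEPES–150 mM NaCl pH 7.4, then cationic liposomes were added at various +/− charge ratios.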

CVI-P cells = assay: Cytotoxicity of amphiphile/DNA complexes, percentage of survived cells; settings: for cell viable: 'at +/−', charge ratio not given
[3] = amphiphile/DNA +/− charge ratio 0.5
[4] = amphiphile/DNA +/− charge ratio 1
[5] = amphiphile/DNA +/− charge ratio 2
[6] = amphiphile/DNA +/− charge ratio 4
[7] = amphiphile/DNA +/− charge ratio 8

melting point	Structure (SMILES)	complexation, percentage of the maximum fluorescence signal when EtBr bound to DNA in the absence of an amphiphile (plasmid DNA; [3])	complexation, percentage of the maximum fluorescence signal when EtBr bound to DNA in the absence of an amphiphile (plasmid DNA; [4])	complexation, percentage of the maximum fluorescence signal when EtBr bound to DNA in the absence of an amphiphile (plasmid DNA; [5])	complexation, percentage of the maximum fluorescence signal when EtBr bound to DNA in the absence of an amphiphile (plasmid DNA; [6])	complexation, percentage of the maximum fluorescence signal when EtBr bound to DNA in the absence of an amphiphile (plasmid DNA; [7])	cytotoxicity as a percentage of survived cells (CVI-P cells; [3])	cytotoxicity as a percentage of survived cells (CVI-P cells; [4])	cytotoxicity as a percentage of survived cells (CVI-P cells; [5])	cytotoxicity as a percentage of survived cells (CVI-P cells; [6])	cytotoxicity as a percentage of survived cells (CVI-P cells; [7])	transfection, result in words [1]	also measured
143 to 146 °C	CCCCCCCCCCCCCCCC(=O)OCCCOC(=O)C1=C(C)NC(C)=C(C(=O)OCCCOC(=O)CCCCCCCCCCCCCCC)C1c1ccc[n+](C)c1.I.[I-] [III, 1′,4′-Dihydro-1,2′,6′-trimethyl-3′,5′-bis[(3-palmitoyloxypropoxy)carbonyl]-3,4′-bipyridinium iodide]	93,2%	83,2%	76,7%	74,6%	74,7%	87,86%	81,86%	72,04%	54,84%	68,47%	No signal	
156 to 159 °C	CC1=C(C(=O)OC2CC(C)CCC2C(C)C)C(c2ccc[n+](C)c2)C(C(=O)OC2CC(C)CCC2C(C)C)=C(C)N1.I.[I-] (stereo not shown) [X, 1′,4′-Dihydro-3′,5′-bis(menthyloxycarbonyl)-1,2′,6′-trimethyl-3,4′-bipyridinium iodide]											No signal	cell viable (CVI-P cells): 50%
271 to 274 °C	CC1=C(C(=O)OC2CC3CCC2(C)C3(C)C)C(c2ccc[n+](C)c2)C(C(=O)OC2CC3CCC2(C)C3(C)C)=C(C)N1.I.[I-] (stereo not shown) [XI, 3′,5′-Bis(bornyloxycarbonyl)-1′,4′-dihydro-1,2′,6′-trimethyl-3,4′-bipyridinium iodide]											No signal	cell viable (CVI-P cells): 50%
142 to 143 °C (dec.)	Br.CCCCCCCCC[n+]1cccc(C2C(C(=O)OCC)=C(C)NC(C)=C2C(=O)OCC)c1.[Br-] [XIII, 3′,5′-Bis(ethoxycarbonyl)-1′,4′-dihydro-2′,6′-dimethyl-1-nonyl-3,4′-bipyridinium bromide]											No signal	
124 to 126 °C (dec.)	Br.CCCCCCCCCCCCCCOC(=O)C1=C(C)NC(C)=C(C(=O)OCCCCCCCCCCCCCC)C1c1ccc[n+](CCCCCCCCC)c1.[Br-] [XIV, 1′,4′-Dihydro-2′,6′-dimethyl-1-nonyl-3′,5′-bis(tetradecyloxycarbonyl)-3,4′-bipyridinium bromide]	100%	96,2%	91,03%	88,9%	93,7%	103,98%	93,16%	51,04%	34,5%	44,62%		transfection efficiency [1, 3]: 0,75 β-galactosidase units per well; transfection efficiency [1, 4]: 3,38 β-galactosidase units per well; transfection efficiency [1, 5]: 1,5 β-galactosidase units per well
140 to 141 °C (dec.)	CCCCCCCCCCCCCCCCOC(=O)C1=C(C)NC(C)=C(C(=O)OCCCCCCCCCCCCCCCC)C1c1ccc[n+](CC(N)=O)c1.I.[I-] [XX, 1-Carbamoylmethyl-3′,5′-bis(hexadecyloxycarbonyl)-1′,4′-dihydro-2′,6′-dimethyl-3,4′-bipyridinium iodide]	88,0%	81,94%	76,4%	71,5%	66,31%	100,59%	110,76%	59,96%	71,98%	92,09%	No signal	

The next lines start with the molecule.

Structure (SMILES)	melting point	complexation, percentage of the maximum fluorescence signal when EtBr bound to DNA in the absence of an amphiphile (plasmid DNA; [3])	complexation, percentage of the maximum fluorescence signal when EtBr bound to DNA in the absence of an amphiphile (plasmid DNA; [4])	complexation, percentage of the maximum fluorescence signal when EtBr bound to DNA in the absence of an amphiphile (plasmid DNA; [5])	complexation, percentage of the maximum fluorescence signal when EtBr bound to DNA in the absence of an amphiphile (plasmid DNA; [6])	complexation, percentage of the maximum fluorescence signal when EtBr bound to DNA in the absence of an amphiphile (plasmid DNA; [7])	cytotoxicity as a percentage of survived cells (CVI-P cells; [3])	cytotoxicity as a percentage of survived cells (CVI-P cells; [4])	cytotoxicity as a percentage of survived cells (CVI-P cells; [5])	cytotoxicity as a percentage of survived cells (CVI-P cells; [6])	cytotoxicity as a percentage of survived cells (CVI-P cells; [7])	transfection, result in words [1]	also measured
CCCCCCCCCCCCCCCC(=O)OCCOC(=O)C1=C(C)NC(C)=C(C(=O)OCCOC(=O)CCCCCCCCCCCCCCC)C1c1ccc[n+](C)c1.I.[I-] [I, 1′,4′-Dihydro-1,2′,6′-trimethyl-3′,5′-bis[(2-palmitoyloxyethoxy)carbonyl]-3,4′-bipyridinium iodide]	105 to 107 °C	89,4%	87,2%	84,4%	78,3%	73,35%	94,43%	94,83%	91,92%	78,43%	70,75%		transfection efficiency [1, 3]: 0,26 β-galactosidase units per well; transfection efficiency [1, 4]: 7,72 β-galactosidase units per well; transfection efficiency [1, 5]: 2,89 β-galactosidase units per well; transfection efficiency [1, 6]: 0,73 β-galactosidase units per well; transfection efficiency [1, 7]: 0,78 β-galactosidase units per well; transfection efficiency [2, 3]: 0,83 β-galactosidase units per well; transfection efficiency [2, 4]: 20,04 β-galactosidase units per well; transfection efficiency [2, 5]: 5,72 β-galactosidase units per well; transfection efficiency [2, 6]: 0,89 β-galactosidase units per well; transfection efficiency [2, 7]: 0,88 β-galactosidase units per well; cytotoxicity as a percentage of survived cells (D 407 cells; [3]): 90,43%; cytotoxicity as a percentage of survived cells (D 407 cells; [4]): 80,92%; cytotoxicity as a percentage of survived cells (D 407 cells; [5]): 51,14%; cytotoxicity as a percentage of survived cells (D 407 cells; [6]): 31,39%; cytotoxicity as a percentage of survived cells (D 407 cells; [7]): 26,92%
Br.CCCCCCCCCCCCCCCC[n+]1cccc(C2C(C(=O)OCC)=C(C)NC(C)=C2C(=O)OCC)c1.[Br-] [XV, 3′,5′-Bis (ethoxycarbonyl)-1-hexadecyl-1′,4′-dihydro-2′,6′-dimethyl-3,4′-bipyridinium bromide]	135 to 136 °C											No signal	
Br.CCCCCCCCCCCCCCCC[n+]1cccc(C2C(C(=O)OCCOCCC)=C(C)NC(C)=C2C(=O)OCCOCCC)c1.[Br-] [XVI, 1-Hexadecyl-1′,4′-dihydro-2′,6′-dimethyl-3′,5′-bis[(2-propoxyethoxy)carbonyl]-3,4′-bipyridinium bromide]	93 to 96 °C											No signal	cell viable (CVI-P cells): 50%
Br.CCCCCCCCCCCCCCCC[n+]1cccc(C2C(C(=O)OCCCCCCCCCCCCCC)=C(C)NC(C)=C2C(=O)OCCCCCCCCCCCCCC)c1.[Br-] [XVII, 1-Hexadecyl-1′,4′-dihydro-2′,6′-dimethyl-3′,5′-bis(tetradecyloxycarbonyl)-3,4′-bipyridinium bromide]	133 to 135 °C	104,4%	97,9%	95,1%	97%	96,5%	105,14%	85,31%	88,20%	67,45%	97,34%	No signal	
Br.CCCCCCCCCCCCCCCC[n+]1cccc(C2C(C(=O)OC3CC(C)CCC3C(C)C)=C(C)NC(C)=C2C(=O)OC2CC(C)CCC2C(C)C)c1.[Br-] (stereo not shown) [XVIII, 1-Hexadecyl-1′,4′-dihydro-3′,5′-bis(menthyloxycarbonyl)-2′,6′-dimethyl-3,4′-bipyridinium bromide]	115 to 117 °C	97,5%	90,8%	82,6%	78,5%	79,6%	85,15%	83,94%	76,51%	9,08%	3,05%		

Source: patent US20030064954A1, “Cationic amphiphilic 1,4-dihydropyridine derivatives useful for delivery of nucleotide containing compounds” (priority 2000, published 2003)
